Measured values: paper PMC5507927, “Lybatides from Lycium barbarum Contain An Unusual Cystine-stapled Helical Peptide Scaffold” (Scientific Reports, 2017)
Positions of bridges follow the written chain, without caps; N, C: chain ends. Residues, ends and D or L forms follow the SMILES beside them.

Tests used:
trypsin = assay: Enzymatic stability with trypsin (RP-HPLC profile against control); format: in vitro ADME; settings: trypsin (1 μL of 0.5 μg/μL), 37 °C, 10 μg peptide in 100 μL 100 mM ammonium bicarbonate buffer pH 7.8, RP-HPLC profile compared with control without trypsin, read-out: peptide not degraded when incubated with trypsin
Procedure: CRPs with a well-defined disulfide core are known for their compact structure and high resistance to heat and enzymatic degradation. This stability is an important characteristic for CRPs as putative bioactive peptides in order for them to survive decoction processes in traditional herbal preparations and to retain both bioavailability and pharmacological effects by oral administration. […] A total of 96% of lyba1 remained after heating in boiling water at 100 °C for 2 h. Similarly, 99% of the peptide remained intact after incubation in 2 M HCl for 3 h, and 99% of the peptide was not degraded when incubated with trypsin for 3 h (Fig. 5).
Figure 5 Stability assays of lybatide, lyba1. (A) Thermal stability of lyba1 incubated at 100 °C for 2 h. (B) Acidic condition stability of lyba1 incubated in 2.0 M HCl […] for […]. […] (D) Stability of lyba1 incubated in human serum for 60 min at 37 °C, DALK was used as a control. The molecular weight of the peak was determined by MALDI-MS. TEXT PRINTED IN THE PICTURE: (A) lyba1: Cald.: 3509; Found: 3509 | (B) lyba1: Cald.: 3509; Found: 3509 | (C) lyba1: Cald.: 3509; Found: 3509 DOUBTS OF THE COPYIST ABOUT THIS PICTURE: lyba1, panels A-C: 'Cald.' and 'Found' are printed with no measure or unit. I took them as molecular weight, but they may be only mass-spectrometric peak identification. […]

[1] = tested on: human umbilical vein endothelial cells (HUVEC-CS, ATCC CRL-2873); assay: MTT cell toxicity assay; format: cell-based; settings: overnight incubation, tested up to 100 μM (method section: 0.01-10 μM)
Procedure: (§1) Many CRPs including defensins, thionins and hevein-like peptides display antimicrobial or cytotoxic activity.
(§2) Lybatide lyba1 was tested for its cytotoxicity effect against human umbilical vein endothelial cells (HUVEC-CS, ATCC CRL-2873), monkey kidney epithelial cells (Vero, ATCC CCL-81) and adenocarcinomic human alveolar basal epithelial cells (A549, ATCC CCL-185). Briefly, 1 × 10^4 cells per well in 100 μL were seeded into a 96-well plate (TPP, Switzerland) and incubated overnight. The supernatant was removed, and the cells were washed twice with phosphate buffered saline (PBS; Gibco, USA). The cells were then treated with lyba1 at concentrations 0.01 μM, 0.1 μM, 1 μM, and 10 μM and incubated overnight, with 10% DMSO used as positive control.
(§3) After incubation, MTT was added to the wells and the plate was incubated for 1.5 h at 36.7 °C. Next, 200 μL of 100% DMSO was added, incubated for 2 h, and the absorbance was determined with a microplate reader at 550 nm wavelength.

[2] = tested on: monkey kidney epithelial cells (Vero, ATCC CCL-81); assay: MTT cell toxicity assay; format: cell-based; settings: overnight incubation, tested up to 100 μM (method section: 0.01-10 μM)
Procedure: as §1, §2, §3

[3] = tested on: adenocarcinomic human alveolar basal epithelial cells (A549, ATCC CCL-185); assay: MTT cell toxicity assay; format: cell-based; settings: overnight incubation, tested up to 100 μM (method section: 0.01-10 μM)
Procedure: as §1, §2, §3

## CC[C@H](C)[C@@H]1NC(=O)[C@@H]2CSSC[C@H](NC(=O)[C@H](CO)NC(=O)[C@@H](N)CC(=O)O)C(=O)N[C@@H](CO)C(=O)N[C@@H](CCC(=O)O)C(=O)N[C@@H](Cc3ccc(O)cc3)C(=O)N[C@H]3CSSC[C@@H](C(=O)N4CCC[C@H]4C(=O)N[C@@H](CO)C(=O)O)NC(=O)[C@H](CSSC[C@H](NC(=O)[C@H](CO)NC(=O)[C@H](CC(N)=O)NC(=O)[C@H](CC(N)=O)NC(=O)[C@H](CO)NC3=O)C(=O)N3CCC[C@H]3C(=O)N[C@@H](Cc3ccc(O)cc3)C(=O)N[C@H]3CSSC[C@H](NC(=O)[C@H](CC(C)C)NC(=O)[C@H]([C@@H](C)O)NC(=O)[C@H](Cc4ccc(O)cc4)NC(=O)[C@H](CC(C)C)NC(=O)[C@H](CCCCN)NC(=O)[C@H](CCC(N)=O)NC(=O)CNC(=O)[C@H](CC(=O)O)NC3=O)C(=O)N2)NC(=O)[C@H]([C@@H](C)O)NC(=O)[C@H](CC(N)=O)NC1=O [lyba1] (H-DSCSEYCSNNSCPYCDGQKLYTLCCINTCCPS-OH; disulfide 3-25, 7-30, 12-29, 15-24)
trypsin
  remaining at 3 h, 100 µg/mL: 99%
[1]
  cytotoxic effect: did not display any cytotoxic effect
[2]
  cytotoxic effect: did not display any cytotoxic effect
[3]
  cytotoxic effect: did not display any cytotoxic effect
